# Measured values as given in patent publication US20100279409A1, “METHOD FOR MODIFYING CELLUAR IMMUNE RESONSE BY MODULATING ACTIVIN ACTIVITY” (priority 2007, published 2010).
# Experiments:
# NK cells = test: Multiplex cytokine and chemokine array of NK cell supernatants; format: cell-based, human; settings: activated NK cells
# Experimental: The analysis reported supra was extended to an analysis of the supernatants produced during the various cell culture experiments. A multiplex array system for chemokines and cytokines were used, as was a standard ELISA for measuring IFN-γ. Bead arrays were used to quantify each of IFN-γ, IL-1 IL-6, IL-8, IL-10, TNF-α, GM-CSF, IP-10, MCP-1, MIP-1α, and 1β. Levels of production were measured using standard methodologies.
# [1] = tested on: NK cells (target cells K562 or Jurkat cells); test: NK cell killing of calcein-labeled target cells; format: cell-based, human; settings: 100 ng/ml, 3 days culture, K562 or Jurkat targets, 4 hours
# Experimental: 1×10^6 purified NK cells were cultured in 24 well-plates, either with a high dose of IL-2 (100 U/ml), or a combination of 20 U/ml of IL-2 and IL-12. The culturing took place in the absence of either of activin-A or TGF-β or 100 ng/ml of one of them. The culture continued for 3 days.
# After the 3 days of culture, the NK cells were combined with target cells K562 or Jurkat cells, at effector (NK cells): target (K562 or Jurkat cells) ratios of 5:1, 2:1, and 0.1:1. The target cells had been labeled with calcein previously. The total number of labeled target cells was 2×10^4, and the mixture was incubated for 4 hours. The efficiency of killing was determined by measuring calcein dye release via spectrometry.
substance,measurement,setting,value
activin-A,GM-CSF production,NK cells,suppressed
same,IFN-γ production (bead array),NK cells,suppressive effect
same,IL-1β production,NK cells,suppressed
same,IL-6 production,NK cells,suppressed
same,IL-8 production,NK cells,suppressing
same,IL-10 production,NK cells,"increased the low amounts of IL-10 that had been produced, significantly"
same,IP-10 production,NK cells,suppressing
same,MIP-1α production,NK cells,suppressing
same,MIP-1β production,NK cells,suppressing
same,TNF-α production,NK cells,suppressed
same,killing ability of NK cells,[1],had no impact whatsoever
